Details: about 8 mg of LANE, end of test, filter wash
From the text: The apparatus is consisting of an upper part, the donor chamber, and a lower part, the receiving chamber, held together by means of a metal clamp, but separated by a glass microfiber filter, used as a diffusion membrane, and placed horizontally in contact with the dissolution medium. The receiving chamber contains a magnetic stirrer.
The dissolution medium used for the analysis is phosphate buffered saline (PBS), prepared weighing 8 g of NaCl, 0.2 g of KCl, 1.44 g of Na2HPO4, and 0.12 g of KH2PO4 dissolved in 1 L of distilled water, with a final pH of 7.4. During the analysis, RespiCell™ was thermostated (Lauda eco silver E4, DE) at 37±0.5° C.
The receiving chamber was filled with PBS and sampled at pre-established time intervals through the side arm of the cell. Before the analysis 1 mL of the dissolution medium was applied on the filter, to get it completely wet.
To assess the not dissolved or trapped in the filter drug amount, the not dissolved residual powder was recovered washing the filter with 5 mL of a methanol:water 75:25 v/v mixture, at the end of the experiment. The drug amount in the samples was quantified by HPLC analysis.

Compound: CCN(CC)CC(=O)Nc1c(C)cccc1C [Lidocaine powder raw material, lidocaine]
- Lidocaine retained on and inside the filter: 0.1 ± 0.0 mg
